Reference: patent publication US12590066B2, “Fused-heterocyclyl-carbonohydrazonoyl dicyanide compounds and use thereof” (KOREA INSTITUTE OF SCIENCE AND TECHNOLOGY, priority 2020, dated 2026)

Key:
tau protein = target: T1, tau protein (Homo sapiens, UniProt P10636); assay: Tau-BiFC cell model, inhibition of Forskolin-induced tau protein aggregation; assay type: cell-based; conditions: Forskolin 30 μM, 48 hours; for Tau BiFC in cells Response (% @10 μM): 10 μM compound, Forskolin-only group = 100% tau protein-aggregated state; for IC50: tau-BiFC cells
T1 construct: BiFC fluorescent-protein fragments (type and halves not specified); expressed in transfected cells
T1 sequence (P10636 1-441 isoform P10636-8): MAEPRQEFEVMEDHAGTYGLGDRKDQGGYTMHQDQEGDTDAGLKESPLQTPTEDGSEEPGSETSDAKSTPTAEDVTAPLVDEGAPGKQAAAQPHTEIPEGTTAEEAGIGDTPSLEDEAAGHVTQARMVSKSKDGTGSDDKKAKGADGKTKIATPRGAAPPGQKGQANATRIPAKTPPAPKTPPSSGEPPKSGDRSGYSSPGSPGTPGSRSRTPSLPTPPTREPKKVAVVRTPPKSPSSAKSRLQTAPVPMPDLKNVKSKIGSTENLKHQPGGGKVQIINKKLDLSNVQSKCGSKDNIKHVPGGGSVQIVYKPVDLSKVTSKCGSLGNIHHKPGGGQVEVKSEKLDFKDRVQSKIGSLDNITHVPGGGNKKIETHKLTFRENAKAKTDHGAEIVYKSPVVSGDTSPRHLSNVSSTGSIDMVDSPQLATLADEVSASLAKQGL
Outline: (§1)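 Tau-BiFC cells co-treated 48 h with 30 μM forskolin and compounds (1, 3, 10 μM screen; 0.01–30 μM dose-response). BiFC fluorescence normalized to forskolin-only (100% aggregation) minus untreated gives aggregation inhibition and IC50; viability as Hoechst-stained nuclei count relative to forskolin-only.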

Tau-BiFC cells = assay: Cell viability (stained nuclei count) in Tau-BiFC cells; assay type: cell-based; conditions: 10 μM compound, 48 hours; Forskolin-only group = 100% cell viability
Outline: as §1

[1] = Liver microsome stability; assay type: in vitro ADME; conditions: 1 μM compound, 37° C., 30 minutes, NADPH; for Human (%) amount of substrate remaining after the reaction: human liver microsomes 0.25 mg/mL; for Mouse (%) amount of substrate remaining after the reaction: mouse liver microsomes 0.25 mg/mL; for Rat (%) amount of substrate remaining after the reaction: rat liver microsomes 0.25 mg/mL; for Dog (%) amount of substrate remaining after the reaction: dog liver microsomes 0.25 mg/mL
Protocol: The stability of liver microsomes due to the compounds prepared according to Examples 1 to 57 was confirmed. Specifically, four types of liver microsomes (human, dog, rat, and mouse, each 0.25 mg/mL), a 0.1 M phosphate buffer solution (pH 7.4), and each of the compounds at a concentration of 1 μM were mixed and pre-cultured at 37° C. for 5 minutes and further cultured at 37° C. for 30 minutes together with an NADPH generation system solution added thereto. Thereafter, the reaction was terminated by adding an acetonitrile solution containing an internal standard material (chloropropamide) and centrifuged for 5 minutes (14,000 rpm, 4° C.), and then a supernatant was injected into an LC-MS/MS system for analysis of substrate drugs to thereby evaluate metabolic stability due to 8 types of compounds.
The amount of the substrate remaining after the reaction was analyzed using the Shimadzu Nexera XR system and TSQ Vantage (Thermo). In an HPLC column, Kinetex XB-C18 (2.1 mm×100 mm, particle size of 2.6 μm; Phenomenex, USA) was used, and mobile phases were (A) distilled water containing 0.1% formic acid and (B) acetonitrile containing 0.1% formic acid. Analyst software (version 1.6.3) and Xcalibur (version 1.6.1) were used for data analysis.

## CCn1c(=O)n(C)c2cc(NN=C(C#N)C#N)cnc21 [Compound 48, (3-ethyl-1-methyl-2-oxo-2,3-dihydro-1H-imidazo[4,5-b]pyridin-6-yl)carbonohydrazonoyl dicyanide]
Tau protein
  Tau BiFC in cells Response (% @10 μM): −18%
  IC50: 60 nM
Tau-BiFC cells
  Cell viability (% @10 μM): 143%
[1]
  Human (%) amount of substrate remaining after the reaction: 96.7%
  Mouse (%) amount of substrate remaining after the reaction: >100%
  Rat (%) amount of substrate remaining after the reaction: 96.3%

## N#CC(C#N)=NNc1cccc2c(=O)[nH]ccc12 [Compound 4, (1-oxo-1,2-dihydroisoquinolin-5-yl)carbonohydrazonoyl dicyanide]
Tau protein
  Tau BiFC in cells Response (% @10 μM): 0%
  IC50: 1800 nM
Tau-BiFC cells
  Cell viability (% @10 μM): 99.3%
[1]
  Dog (%) amount of substrate remaining after the reaction: >100%
  Human (%) amount of substrate remaining after the reaction: >100%
  Mouse (%) amount of substrate remaining after the reaction: >100%
  Rat (%) amount of substrate remaining after the reaction: 94.5%

## CC(C)n1c(=O)n(C(C)C)c2ncc(NN=C(C#N)C#N)cc21 [Compound 34, (1,3-diisopropyl-2-oxo-2,3-dihydro-1H-imidazo[4,5-b]pyridin-6-yl)carbonohydrazonoyl dicyanide]
Tau protein
  Tau BiFC in cells Response (% @10 μM): −45%
  IC50: 50 nM
Tau-BiFC cells
  Cell viability (% @10 μM): 120%
[1]
  Human (%) amount of substrate remaining after the reaction: >100%
  Mouse (%) amount of substrate remaining after the reaction: 86.6%
  Rat (%) amount of substrate remaining after the reaction: 57.5%

## Cn1ccc2c(NN=C(C#N)C#N)cccc2c1=O [Compound 5, (2-methyl-1-oxo-1,2-dihydroisoquinolin-5-yl)carbonohydrazonoyl dicyanide]
Tau protein
  Tau BiFC in cells Response (% @10 μM): 0%
Tau-BiFC cells
  Cell viability (% @10 μM): 41.4%
[1]
  Dog (%) amount of substrate remaining after the reaction: >100%
  Human (%) amount of substrate remaining after the reaction: 98.1%
  Mouse (%) amount of substrate remaining after the reaction: 92.9%
  Rat (%) amount of substrate remaining after the reaction: >100%

## CC(C)n1c(=O)n(C2CC2)c2ncc(NN=C(C#N)C#N)cc21 [Compound 53, (3-cyclopropyl-1-isopropyl-2-oxo-2,3-dihydro-1H-imidazo[4,5-b]pyridin-6-yl)carbonohydrazonoyl dicyanide]
Tau protein
  Tau BiFC in cells Response (% @10 μM): −39%
  IC50: 160 nM
Tau-BiFC cells
  Cell viability (% @10 μM): 125%
[1]
  Human (%) amount of substrate remaining after the reaction: 84.6%
  Mouse (%) amount of substrate remaining after the reaction: 83.5%
  Rat (%) amount of substrate remaining after the reaction: 82.1%

## CC(C)n1c(=O)n(C(C)C)c2cc(NN=C(C#N)C#N)ccc21 [Compound 23, (1,3-diisopropyl-2-oxo-2,3-dihydro-1H-benzo[d]imidazol-5-yl)carbonohydrazonoyl dicyanide]
Tau protein
  Tau BiFC in cells Response (% @10 μM): 0%
  IC50: 100 nM
Tau-BiFC cells
  Cell viability (% @10 μM): 117%
[1]
  Dog (%) amount of substrate remaining after the reaction: 86.1%
  Human (%) amount of substrate remaining after the reaction: 83.1%
  Mouse (%) amount of substrate remaining after the reaction: 72.4%
  Rat (%) amount of substrate remaining after the reaction: 77.7%

## N#CC(C#N)=NNc1ccc2c(c1)sc(=O)n2C(F)F [Compound 19, (3-(difluoromethyl)-2-oxo-2,3-dihydrobenzo[d]thiazol-6-yl)carbonohydrazonoyl dicyanide]
Tau protein
  Tau BiFC in cells Response (% @10 μM): 0%
  IC50: 100 nM
Tau-BiFC cells
  Cell viability (% @10 μM): 125.3%
[1]
  Dog (%) amount of substrate remaining after the reaction: 80.4%
  Human (%) amount of substrate remaining after the reaction: 99.7%
  Mouse (%) amount of substrate remaining after the reaction: 58.7%
  Rat (%) amount of substrate remaining after the reaction: 69.7%

## N#CC(C#N)=NNc1ccc2c(c1)n(C(F)F)c(=O)n2C(F)F [Compound 24, (1,3-bis(difluoromethyl)-2-oxo-2,3-dihydro-1H-benzo[d]imidazol-5-yl)carbonohydrazonoyl dicyanide]
Tau protein
  Tau BiFC in cells Response (% @10 μM): 0%
  IC50: 200 nM
Tau-BiFC cells
  Cell viability (% @10 μM): 125.1%
[1]
  Dog (%) amount of substrate remaining after the reaction: 88.1%
  Human (%) amount of substrate remaining after the reaction: 88.2%
  Mouse (%) amount of substrate remaining after the reaction: 84.1%
  Rat (%) amount of substrate remaining after the reaction: 86.8%

## Cn1c(=O)n(C)c2cc(NN=C(C#N)C#N)c(Cl)cc21 [Compound 10, (6-chloro-1,3-dimethyl-2-oxo-2,3-dihydro-1H-benzo[d]imidazol-5-yl)carbonohydrazonoyl dicyanide]
Tau protein
  Tau BiFC in cells Response (% @10 μM): 0%
  IC50: 300 nM
Tau-BiFC cells
  Cell viability (% @10 μM): 145.3%
[1]
  Dog (%) amount of substrate remaining after the reaction: 98.1%
  Human (%) amount of substrate remaining after the reaction: >100%
  Mouse (%) amount of substrate remaining after the reaction: 92.6%
  Rat (%) amount of substrate remaining after the reaction: 92.7%

## CC(C)n1ccc2ccc(NN=C(C#N)C#N)cc2c1=O [Compound 3, (2-isopropyl-1-oxo-1,2-dihydroisoquinolin-7-yl)carbonohydrazonoyl dicyanide]
Tau protein
  Tau BiFC in cells Response (% @10 μM): 0%
  IC50: 200 nM
Tau-BiFC cells
  Cell viability (% @10 μM): 112%
[1]
  Dog (%) amount of substrate remaining after the reaction: 6.4%
  Human (%) amount of substrate remaining after the reaction: 57.4%
  Mouse (%) amount of substrate remaining after the reaction: 10.1%
  Rat (%) amount of substrate remaining after the reaction: 44.4%

## CCn1c(=O)n(C)c2cc(NN=C(C#N)C#N)ccc21 [Compound 38, (1-ethyl-3-methyl-2-oxo-2,3-dihydro-1H-benzo[d]imidazol-5-yl)carbonohydrazonoyl dicyanide]
Tau protein
  Tau BiFC in cells Response (% @10 μM): −31%
  IC50: 30 nM
Tau-BiFC cells
  Cell viability (% @10 μM): 106%
[1]
  Human (%) amount of substrate remaining after the reaction: 95%
  Mouse (%) amount of substrate remaining after the reaction: 81.6%
  Rat (%) amount of substrate remaining after the reaction: 91.8%

## Cn1c(=O)n(C)c2cc(NN=C(C#N)C#N)ccc21 [Compound 22, (1,3-dimethyl-2-oxo-2,3-dihydro-1H-benzo[d]imidazol-5-yl)carbonohydrazonoyl dicyanide]
Tau protein
  Tau BiFC in cells Response (% @10 μM): 0%
  IC50: 200 nM
Tau-BiFC cells
  Cell viability (% @10 μM): 120.7%
[1]
  Dog (%) amount of substrate remaining after the reaction: 92.2%
  Human (%) amount of substrate remaining after the reaction: 80.6%
  Mouse (%) amount of substrate remaining after the reaction: 63.1%
  Rat (%) amount of substrate remaining after the reaction: 91.6%

## CC(C)n1c(=O)n(C(F)F)c2cc(NN=C(C#N)C#N)ccc21 [Compound 43, (3-(difluoromethyl)-1-isopropyl-2-oxo-2,3-dihydro-1H-benzo[d]imidazol-5-yl)carbonohydrazonoyl dicyanide]
Tau protein
  Tau BiFC in cells Response (% @10 μM): −49%
  IC50: 10 nM
Tau-BiFC cells
  Cell viability (% @10 μM): 96%
[1]
  Human (%) amount of substrate remaining after the reaction: 81.5%
  Mouse (%) amount of substrate remaining after the reaction: 58.6%
  Rat (%) amount of substrate remaining after the reaction: 86.2%

## Cn1c(=O)n(C)c2c(Cl)cc(NN=C(C#N)C#N)cc21 [Compound 11, (7-chloro-1,3-dimethyl-2-oxo-2,3-dihydro-1H-benzo[d]imidazol-5-yl)carbonohydrazonoyl dicyanide]
Tau protein
  Tau BiFC in cells Response (% @10 μM): 0%
  IC50: 100 nM
Tau-BiFC cells
  Cell viability (% @10 μM): 142.3%
[1]
  Dog (%) amount of substrate remaining after the reaction: 63.1%
  Human (%) amount of substrate remaining after the reaction: 96.1%
  Mouse (%) amount of substrate remaining after the reaction: 63.9%
  Rat (%) amount of substrate remaining after the reaction: 82.8%
